Test results published in patent publication US7932422B2, “Use of chlorine guanabenz derivatives for treating polyglutamine expansion associated diseases” (priority 2006, dated 2011).
“Also recorded” adds a separate entry of the source. Counter-ions that a name gives are not always drawn.

Legend:
[1] = tested on: aggregated Htt48 in 293T cells; assay: filter retardation assay of lysates of Htt48-transfected 293T cells; format: cell-based; settings: lysates 48 h post-transfection
NG108-15 cells = assay: vimentin level in NG108-15 neuronal-like cell model of HD; format: cell-based; settings: drugs added 12 h post-induction, extracts 3 days after treatment
Method: (§1) NG108-15 cells were induced for differentiation and T73 expression as described in Lunkes et al, 2002 and treated with the indicated compounds in DMSO at the indicated doses or DMSO alone 12 h post-induction. SDS lysates collected […] were analyzed by SDS-PAGE followed by immunoblot with Htt 2B4 and vimentin antibodies. Images were acquired and quantified with the Chemi-Smart system (Vilber Lourmat). Quantification of T73 signals is presented as histograms. Signal from DMSO treated cells is used as a reference and set as 1.
Drugs were added 12 h post-induction at the indicated doses. Protein extracts were collected 3 days after treatment and analyzed by immunoblots. […] The aggregates formed in these cells were below the detection level of the filter retardation assay precluding a robust quantitative analysis of the effects of the molecules on aggregate. However, because both aggregates and pathological symptoms are reversible with blockade of pathological protein expression, it is likely that aggregates in NG108-15 cells will diminish as a consequence of decreased accumulation of T73 by treating neurons with Psi114 or Cl-Psi114.

[2] = tested on: full length endogenous Huntingtin in HD patient lymphoblastoid cell line; assay: full length endogenous Huntingtin in HD patient lymphoblastoid cell line; format: cell-based
Description: (§2) Psi114 and Cl-Psi114 reduce polyQ accumulation both in their soluble and insoluble form. In developing therapeutic approaches, targeting specifically the pathogenic fragment of Huntingtin is a fundamental concern because Huntingtin is an essential gene. The inventors tested the effect of active compounds on endogenous full length Huntingtin in the same extracts as tested for the N-terminal fragment of Huntingtin. Psi114 and Cl-Psi114 have no effect on the levels of full length endogenous Huntingtin in 293T cells while these 2 compounds effectively reduce accumulation of the N-terminal pathogenic fragment of Huntingtin (FIG. 1b). Cl-Psi114 has also no effect on the level of full length endogenous Huntingtin in HD patient lymphoblastoid cell line.

[3] = tested on: full length endogenous Huntingtin in 293T cells; assay: immunoblot of full length endogenous Huntingtin in 293T cells; format: cell-based; settings: same extracts as for the N-terminal fragment
Method: b: 293T cells were transfected with Htt48 and treated with the indicated compounds in DMSO at the indicated doses or DMSO alone 4 h posttransfection. SDS lysates collected 48 h post-transfection were analyzed on a 10% SDS-PAGE followed by immunoblot with Htt 2B4 and vimentin antibodies. To reveal full length Huntingtin, the same extracts were analyzed on a 4.5% SDS-PAGE followed by immunoblot PAGE followed by immunoblot with an oligoclonal mixture of Huntingtin antibodies: 2B4, 4C8 and 2E8.
as §2

yeast prions = format: cell-based; settings: erg6Δ [PSI+] yeast strain, compound spotted on filter, halo of red [psi-] colonies
[4] = tested on: truncated huntingtin with 73Q repeats (T73) in NG108-15 cells; assay: NG108-15 neuronal-like cell model of HD, immunoblot of T73; format: cell-based; settings: drugs added 12 h post-induction, extracts 3 days after treatment
Method: as §1
The Guanabenz (Psi114) and Chloroguanabenz (Cl-Psi114) effects were so far tested in actively dividing yeast and 293T cells (Lunkes et al., 1998). Because neurons are the target of Huntington and the threat for accumulation of misfolded proteins being exacerbated in neuronal, post-mitotic cells, the inventors next tested the effect of Psi114 and Cl-Psi114 in NG10815 neuronal-like cell model of HD. NG108-15 cells were induced for expression of truncated huntingtin with 73Q repeats (T73) and differentiation.
Drugs were added 12 h post-induction at the indicated doses. Protein extracts were collected 3 days after treatment and analyzed by immunoblots. […] The aggregates formed in these cells were below the detection level of the filter retardation assay precluding a robust quantitative analysis of the effects of the molecules on aggregate. […]

[5] = tested on: N-terminal fragment of Huntingtin derivative with 48 glutamines (Htt48) in 293T cells; assay: 293T cells transfected with Htt48, immunoblot of SDS lysates with Htt 2B4 antibody; format: cell-based; settings: for activity on Htt48 accumulation: 293T cells, up to 100 μM

## N=C(N)N/N=C/c1c(Cl)ccc(Cl)c1Cl [Cl-Psi114, Chloroguanabenz]
[1]
  levels of aggregated Htt48: decrease in a dose dependent manner
NG108-15 cells
  vimentin level: remains unaltered
[2]
  effect on level of full length endogenous Huntingtin: no effect
[3]
  effect on levels of full length endogenous Huntingtin: no effect
Yeast prions
  activity in the yeast anti-prion screen: active; also recorded: more active in the yeast anti-prion screen that Psi114
[4]
  T73 level: reduction of T73 in a dose dependant manner

## Nc1c(/N=N/c2ccc(-c3ccc(/N=N/c4cc(S(=O)(=O)O)c5ccccc5c4N)cc3)cc2)cc(S(=O)(=O)O)c2ccccc12 [Congo red]
[5]; dose of 500 μM
  activity in the Htt48 293T system: barely detectable activity

## N=C(N)N [GuHCL, guanidine hydrochloride]
Yeast prions
  activity in the yeast anti-prion screen: positive control

## N=C(N)N/N=C/c1c(Cl)cccc1Cl [Psi114, Guanabenz]
[1]
  levels of aggregated Htt48: decrease in a dose dependent manner; also recorded: delayed
NG108-15 cells
  vimentin level: remains unaltered
[3]
  effect on levels of full length endogenous Huntingtin: no effect
Yeast prions
  activity in the yeast anti-prion screen: potent activity against yeast prions; also recorded: active in yeast cells
[4]
  T73 level: reduction of T73 in a dose dependant manner

## Clc1cccc(Cl)c1N=C1NCCN1 [Psi211, Clonidine]
[5]
  activity on Htt48 accumulation: completely inactive

## c1ccc(C2CC2)c(OCC2=NCCN2)c1 [Psi214, Cirazoline]
293T cells
  toxicity: some toxicity

## C1COC(NC(C2CC2)C2CC2)=N1 [Psi215, Rilmenidine]
293T cells
  toxicity: some toxicity

## CCC1(C2=NCCN2)Cc2ccccc2O1 (centres unmarked) [Psi216, Efaroxan]
[5]
  activity on Htt48 accumulation: completely inactive
